Laboratory results as given in PubChem BioAssay (NCI).
Values joined by “and” are separate entries in the source; they are usually repeats but may differ in a detail not shown here. Equal values may be shown once.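 Grown in 96-well plates, cells were treated for 48 hours with each compound at five concentrations. Insufficient inhibition: endpoint recorded as highest concentration tested. The concentration for 50% growth inhibition is given as GI50. Definition used: TGI = concentration required for complete inhibition of growth.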

Tests used:
Experiment in all cases: inhibition of tumour cell growth, NCI panel, 48 h
UACC-62 melanoma = test system: UACC-62 melanoma
HOP-62 NSCLC = test system: HOP-62 NSCLC
HOP-92 NSCLC = test system: HOP-92 NSCLC
SNB-19 CNS = test system: SNB-19 CNS
CAKI-1 renal = test system: CAKI-1 renal
OVCAR-3 ovarian = test system: OVCAR-3 ovarian
NCI-H23 lung = test system: NCI-H23 lung
SNB-75 CNS = test system: SNB-75 CNS
RPMI-8226 leukemia = test system: RPMI-8226 leukemia
SK-OV-3 ovarian = test system: SK-OV-3 ovarian

Q: Which TGI (UACC-62 melanoma) does the source give for C=CCCCCn1c2ccccc2c2c(C)c3cnccc3c(C)c21 here?
A: Its TGI is 40.9 µM.

Q: And the TGI (HOP-62 NSCLC)?
A: Its TGI is 35.9 µM.

Q: And the TGI (HOP-92 NSCLC)?
A: Its TGI is 19.8 µM.

Q: And the TGI (SNB-19 CNS)?
A: Its TGI is 37.9 µM.

Q: And the TGI (CAKI-1 renal)?
A: The TGI was 27.8 µM.

Q: And the TGI (OVCAR-3 ovarian)?
A: The TGI was 19.9 µM.

Q: What about the TGI (NCI-H23 lung) of the same molecule?
A: The TGI was 32.8 µM.

Q: What about the TGI (SNB-75 CNS) of the same molecule?
A: Its TGI is 53.7 µM.

Q: What about the TGI (RPMI-8226 leukemia) of the same molecule?
A: The TGI was 12.8 µM.

Q: What about the TGI (SK-OV-3 ovarian) of the same molecule?
A: Its TGI is 35.9 µM.

Q: CCC1(OC(=O)CN)C(=O)OCc2c1cc1n(c2=O)Cc2cc3cc4c(cc3nc2-1)OCO4 (configuration not stated) was tested. Which GI50 (UACC-62 melanoma) did it give?
A: The GI50 was < 0.01 µM.

Q: What about the TGI (UACC-62 melanoma) of the same molecule?
A: The TGI was < 0.01 µM.

Q: And the GI50 (HOP-62 NSCLC)?
A: The GI50 was < 0.01 µM.

Q: And the TGI (HOP-62 NSCLC)?
A: The TGI was < 0.01 µM.

Q: What about the GI50 (SNB-19 CNS) of the same molecule?
A: Its GI50 is < 0.01 µM.

Q: And the TGI (SNB-19 CNS)?
A: The TGI was 27.3 µM and 3.14 µM.

Q: And the GI50 (CAKI-1 renal)?
A: The GI50 was < 0.01 µM.

Q: What about the TGI (CAKI-1 renal) of the same molecule?
A: The TGI was 0.171 µM.

Q: And the GI50 (OVCAR-3 ovarian)?
A: Its GI50 is 0.196 µM and 0.131 µM.

Q: What about the TGI (OVCAR-3 ovarian) of the same molecule?
A: Its TGI is 1.05 µM and 0.554 µM.

Q: And the GI50 (NCI-H23 lung)?
A: Its GI50 is < 0.01 µM.

Q: And the TGI (NCI-H23 lung)?
A: Its TGI is 0.119 µM and 0.0337 µM.

Q: What about the GI50 (SNB-75 CNS) of the same molecule?
A: Its GI50 is 0.0207 µM and < 0.01 µM.

Q: What about the GI50 (RPMI-8226 leukemia) of the same molecule?
A: The GI50 was 0.0253 µM and 0.0231 µM.

Q: What about the GI50 (SK-OV-3 ovarian) of the same molecule?
A: The GI50 was < 0.01 µM.

Q: What about the TGI (SK-OV-3 ovarian) of the same molecule?
A: The TGI was 0.174 µM.

Q: COC(=O)[C@@H]1C=C[C@H](NC(C)=O)C1 was tested. Which TGI (UACC-62 melanoma) did it give?
A: Its TGI is > 100 µM.

Q: And the TGI (HOP-62 NSCLC)?
A: Its TGI is > 100 µM.

Q: And the TGI (HOP-92 NSCLC)?
A: Its TGI is > 100 µM.

Q: What about the TGI (SNB-19 CNS) of the same molecule?
A: Its TGI is > 100 µM.

Q: And the TGI (CAKI-1 renal)?
A: The TGI was > 100 µM.

Q: What about the TGI (OVCAR-3 ovarian) of the same molecule?
A: Its TGI is > 100 µM.

Q: And the TGI (NCI-H23 lung)?
A: Its TGI is > 100 µM.

Q: What about the TGI (SNB-75 CNS) of the same molecule?
A: Its TGI is > 100 µM.

Q: And the TGI (RPMI-8226 leukemia)?
A: The TGI was > 100 µM.

Q: What about the TGI (SK-OV-3 ovarian) of the same molecule?
A: Its TGI is > 100 µM.

Q: What does the source list for Cn1c(=O)n(CC2CS2)c2ccccc21 (configuration not stated)?
A: TGI (UACC-62 melanoma): > 100 µM; TGI (HOP-62 NSCLC): > 100 µM; TGI (HOP-92 NSCLC): > 100 µM; TGI (SNB-19 CNS): > 100 µM; TGI (CAKI-1 renal): > 100 µM; TGI (OVCAR-3 ovarian): > 100 µM; TGI (SNB-75 CNS): > 100 µM; TGI (RPMI-8226 leukemia): > 100 µM; TGI (SK-OV-3 ovarian): > 100 µM

Q: CC1(C)[C@@H](OC(N)=O)C=C[C@]2(CO)[C@H]3CC[C@]4(C)[C@@H](c5ccc(=O)oc5)[C@@H](Cl)C[C@]4(O)C3=CC[C@@H]12 was tested. Which GI50 (UACC-62 melanoma) did it give?
A: The GI50 was 0.00358 µM.

Q: What about the TGI (UACC-62 melanoma) of the same molecule?
A: The TGI was 0.013 µM.

Q: And the GI50 (HOP-62 NSCLC)?
A: Its GI50 is < 0.0001 µM.

Q: What about the TGI (HOP-62 NSCLC) of the same molecule?
A: Its TGI is 0.00316 µM.

Q: What about the GI50 (HOP-92 NSCLC) of the same molecule?
A: The GI50 was 0.00862 µM.

Q: What about the TGI (HOP-92 NSCLC) of the same molecule?
A: The TGI was 0.0513 µM.

Q: What about the GI50 (SNB-19 CNS) of the same molecule?
A: Its GI50 is 0.00887 µM and 0.0025 µM.

Q: What about the TGI (SNB-19 CNS) of the same molecule?
A: Its TGI is 0.0228 µM and 0.0461 µM.

Q: And the GI50 (OVCAR-3 ovarian)?
A: The GI50 was < 0.0001 µM.

Q: What about the TGI (OVCAR-3 ovarian) of the same molecule?
A: The TGI was 0.00411 µM.

Q: And the GI50 (NCI-H23 lung)?
A: Its GI50 is < 0.0001 µM.

Q: What about the TGI (NCI-H23 lung) of the same molecule?
A: Its TGI is 0.0113 µM.

Q: And the GI50 (RPMI-8226 leukemia)?
A: Its GI50 is 0.00917 µM.

Q: What about the TGI (RPMI-8226 leukemia) of the same molecule?
A: Its TGI is 0.0956 µM.

Q: What about the GI50 (SK-OV-3 ovarian) of the same molecule?
A: The GI50 was 0.00474 µM.

Q: And the TGI (SK-OV-3 ovarian)?
A: Its TGI is 0.0306 µM.

Q: For CCN(CCCl)c1cccc(NC(=O)c2ccc(C(=O)Nc3cccc(CN(C)C)c3)cc2)c1, which TGI (UACC-62 melanoma) is on record?
A: Its TGI is 0.309 µM.

Q: What about the TGI (HOP-62 NSCLC) of the same molecule?
A: Its TGI is 6.14 µM.

Q: And the TGI (HOP-92 NSCLC)?
A: The TGI was 1.6 µM.

Q: What about the TGI (SNB-19 CNS) of the same molecule?
A: The TGI was 0.887 µM.

Q: And the TGI (CAKI-1 renal)?
A: The TGI was 1.58 µM.

Q: And the TGI (NCI-H23 lung)?
A: Its TGI is 1.15 µM.

Q: What about the TGI (SNB-75 CNS) of the same molecule?
A: Its TGI is 0.759 µM.

Q: What about the TGI (RPMI-8226 leukemia) of the same molecule?
A: The TGI was 27 µM.

Q: And the TGI (SK-OV-3 ovarian)?
A: The TGI was 4.13 µM.

Q: Which results are given for C=C(C)[C@@H]1CC[C@]2(CO)CC[C@]3(C)[C@H](CC[C@@H]4[C@@](C)(CCCN)[C@H](C(=C)C)CC[C@]43C)[C@@H]12?
A: GI50 (UACC-62 melanoma): 1.71 µM; TGI (UACC-62 melanoma): 3.09 µM; GI50 (HOP-92 NSCLC): 1.38 µM; TGI (HOP-92 NSCLC): 2.82 µM; GI50 (CAKI-1 renal): 1.79 µM; TGI (CAKI-1 renal): 3.21 µM; GI50 (OVCAR-3 ovarian): 1.59 µM; TGI (OVCAR-3 ovarian): 2.96 µM; GI50 (SNB-75 CNS): 1.48 µM; TGI (SNB-75 CNS): 2.82 µM; GI50 (RPMI-8226 leukemia): 1.46 µM; TGI (RPMI-8226 leukemia): 3.99 µM; GI50 (SK-OV-3 ovarian): 1.71 µM; TGI (SK-OV-3 ovarian): 3.18 µM

Q: CCN(CC)/[N+]([O-])=N/O was tested. Which TGI (UACC-62 melanoma) did it give?
A: The TGI was > 100 µM.

Q: And the TGI (HOP-62 NSCLC)?
A: Its TGI is > 100 µM.

Q: And the TGI (HOP-92 NSCLC)?
A: The TGI was > 100 µM.

Q: And the TGI (SNB-19 CNS)?
A: Its TGI is > 100 µM.

Q: What about the TGI (CAKI-1 renal) of the same molecule?
A: Its TGI is > 100 µM.

Q: And the TGI (OVCAR-3 ovarian)?
A: Its TGI is > 100 µM.

Q: What about the TGI (NCI-H23 lung) of the same molecule?
A: Its TGI is > 100 µM.

Q: And the TGI (SK-OV-3 ovarian)?
A: The TGI was > 100 µM.
